In patent US20100256214A1, “EPH RECEPTOR LIGANDS AND METHODS OF USE” (Burnham Institute for Medical Research, priority 2009, published 2010):

Legend:
EphA and EphB receptors = test: ELISA, ephrin-A5 AP / ephrin-B2 AP binding to immobilized EphA and EphB receptor Fc fusion proteins
Description: (§1) FIGS. 3A and 3B. A. Ephrin-A5 AP binding to immobilized EphA receptor Fc fusion proteins and ephrin-B2 AP binding to immobilized EphB receptor Fc fusion proteins were measured in the presence of the indicated concentrations of compounds 1 and 2. […] Error bars indicate standard error from 3 measurements. B. IC50 values for inhibition of EphA4 AP and EphA2 AP binding to the indicated immobilized ephrins by compounds 1 and 2.
(§2) ELISA Assays and K, Determination—Protein A-coated wells (Pierce Biotecnology, Rockford, Ill.) were used to immobilize ephrin Fc fusion proteins (R&D Systems, Minneapolis, Minn.). Compounds at different concentrations were incubated with EphA4 AP (Cheng and Flanagan, (1994) Cell 79(1), 157-168) or EphA2 AP (Koolpe et al. (2002) J Biol Chem 277(49), 46974-46979) for 3 hours. Alternatively, Eph receptor Fc fusion proteins were immobilized on protein A-coated wells and ephrin-A5 AP (Menzel et al. (2001) Developmental Biology 230(1), 74-88) or ephrin-B2 AP (GeneHunter, Nashville, Tenn.) were added with the compounds. The amount of bound AP-fusion protein was quantified using pNPP as the substrate. Alkaline phosphatase activity from wells with Fc only was subtracted as background. […]

EphA4 [1] = molecular target: T1, EphA4 (Mus musculus, UniProt Q03137); test: EphA4 tyrosine phosphorylation in HT22 neuronal cells; assay type: cell-based; parameters: tyrosine phosphorylation of endogenous EphA4 in HT22 neuronal cells stimulated with ephrin-A5 Fc; endogenous in cells; host or cells: HT22 mouse hippocampal neuronal cells; conditions: for ephrin-induced EphA4 tyrosine phosphorylation: HT22 cells stimulated with ephrin-A5 Fc; for EphA4 phosphorylation: cells stimulated with ephrin-A4
Description: FIGS. 6A-6F. A. HT22 neuronal cells pretreated with the indicated concentrations of compounds 1 or 2 for 15 min were stimulated with 0.5 μg/mL ephrin-A5 Fc (+) or Fc as a control (−) for 20 min in the continued presence of the compounds. EphA4 immunoprecipitates were probed with anti-phosphotyrosine antibody (PTyr) and reprobed for EphA4. C indicates immunoprecipitations performed with control antibodies from non-immunized rabbits. […] Error bars represent the standard error from 4 experiments for compound 1 and 3 experiments for compound 2. […] C. COS7 cells pretreated with the indicated concentrations of compounds 1 or 2 for 15 min were stimulated with 0.1 μg/mL ephrin-A1 Fc or Fc as a control in the continued presence of the compounds. EphA2 immunoprecipitates were probed with anti-phosphotyrosine antibody (PTyr) and reprobed for EphA2. C indicates immunoprecipitations performed with control antibodies. […] Error bars represent the standard error from 2 experiments. Statistical analyses were performed as in (B). HUVE cells were left unstimulated or stimulated with TNFα for 2 hours in the presence of 400 μM compound 1. Duplicate untreated samples are shown. C indicates immunoprecipitations performed with control antibodies. EphA2 immunoprecipitates were probed with anti-phosphotyrosine antibody (PTyr) and reprobed for EphA2. Levels of EphA2 phosphorylation quantified from immunoblots and normalized to the amount of immunoprecipitated EphA2 were also performed. […] The same protocol described in (C) was used, except that COS7 cells were stimulated with 0.5 μg/mL of ephrin-B2 Fc and the EphB2 receptor was immunoprecipitated. F. COS7 cells pretreated with the indicated concentrations of compounds 1 or 2 were stimulated with EGF (+) or left unstimulated (−). Lysates were probed with anti-phosphotyrosine antibody (PTyr) and reprobed for the EGF receptor.
Measurement of Receptor Tyrosine Phosphorylation in Cells—HT22 neuronal cells, which endogenously express EphA4, are derived from immortalized mouse hippocampal neurons (Li et al. (1997) Neuron 19(2), 453-463). COST cells, which endogenously express EphA2, EphB2 and the EGF receptor (EGFR), were obtained from ATCC. Both cell lines were grown in Dulbecco's Modified Eagle's Medium (DMEM) (Mediatech, Inc, Herndon, Va.) with 10% fetal bovine serum (FBS) (Hyclone, Logan, Utah) and Pen/Strep. For EphA4 immunoprecipitations, HT22 cells were serum-starved overnight in 0.5% FBS in DMEM and incubated for 15 min with the compounds or DMSO as a control. The cells were then stimulated with 0.5 μg/mL ephrin-A5 Fc, ephrin-A4 Fc or Fc for 20 min in the continued presence of the compounds. […] The protein concentration was calculated using the BCA protein assay kit (Pierce Biotecnology, Rockford, Ill.). […]
Target sequence in this assay (Q03137 20-986): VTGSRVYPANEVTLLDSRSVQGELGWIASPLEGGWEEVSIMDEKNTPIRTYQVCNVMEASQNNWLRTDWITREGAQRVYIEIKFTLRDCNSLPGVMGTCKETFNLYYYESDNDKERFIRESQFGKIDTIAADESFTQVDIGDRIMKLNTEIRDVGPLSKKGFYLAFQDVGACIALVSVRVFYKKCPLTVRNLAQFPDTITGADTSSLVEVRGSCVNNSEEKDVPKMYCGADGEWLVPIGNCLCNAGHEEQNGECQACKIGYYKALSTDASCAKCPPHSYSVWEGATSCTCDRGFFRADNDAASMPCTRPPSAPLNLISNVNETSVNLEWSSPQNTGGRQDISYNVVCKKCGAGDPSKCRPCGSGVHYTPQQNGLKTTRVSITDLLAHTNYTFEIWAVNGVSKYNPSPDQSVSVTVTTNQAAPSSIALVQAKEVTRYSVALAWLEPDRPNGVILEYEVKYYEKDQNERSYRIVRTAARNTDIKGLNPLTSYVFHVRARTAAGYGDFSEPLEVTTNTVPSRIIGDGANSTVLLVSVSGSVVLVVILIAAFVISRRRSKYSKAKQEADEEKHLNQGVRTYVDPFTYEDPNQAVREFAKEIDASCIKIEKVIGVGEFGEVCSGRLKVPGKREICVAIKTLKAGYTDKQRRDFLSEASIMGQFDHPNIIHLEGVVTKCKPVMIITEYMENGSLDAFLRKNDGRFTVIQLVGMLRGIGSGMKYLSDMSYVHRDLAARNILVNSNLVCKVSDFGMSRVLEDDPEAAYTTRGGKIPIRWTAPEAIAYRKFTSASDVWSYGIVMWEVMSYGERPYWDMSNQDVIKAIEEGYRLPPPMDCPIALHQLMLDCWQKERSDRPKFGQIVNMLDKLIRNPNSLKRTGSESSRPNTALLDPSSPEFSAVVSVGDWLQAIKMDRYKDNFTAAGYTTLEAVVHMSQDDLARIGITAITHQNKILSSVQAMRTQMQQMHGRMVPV

EphA4 [2] = molecular target: T1, EphA4; test: ELISA, EphA4 AP binding to immobilized ephrin Fc fusion proteins; parameters: made in house; conditioned culture medium used
Description: as §1, §2
Target sequence in this assay (Q03137 20-547 limits assumed): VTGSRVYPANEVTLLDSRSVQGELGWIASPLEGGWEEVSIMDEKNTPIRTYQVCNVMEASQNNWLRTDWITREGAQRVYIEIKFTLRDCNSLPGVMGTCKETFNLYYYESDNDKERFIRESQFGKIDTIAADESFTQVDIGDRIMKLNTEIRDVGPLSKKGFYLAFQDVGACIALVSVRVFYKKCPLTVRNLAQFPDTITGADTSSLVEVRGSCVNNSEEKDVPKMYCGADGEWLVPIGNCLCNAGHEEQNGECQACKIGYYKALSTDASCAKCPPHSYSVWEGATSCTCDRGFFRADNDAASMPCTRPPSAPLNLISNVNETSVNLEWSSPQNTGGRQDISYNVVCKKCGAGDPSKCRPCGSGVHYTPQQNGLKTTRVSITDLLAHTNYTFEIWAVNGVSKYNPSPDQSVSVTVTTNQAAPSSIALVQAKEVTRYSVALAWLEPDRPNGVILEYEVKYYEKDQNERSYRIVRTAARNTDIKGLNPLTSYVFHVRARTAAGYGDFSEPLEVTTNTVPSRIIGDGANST

EGF receptor = EGF receptor phosphorylation in COS7 cells; assay type: cell-based; conditions: COS7 cells stimulated with EGF
EphB2 = EphB2 tyrosine phosphorylation in COS7 cells; assay type: cell-based; conditions: COS7 cells stimulated with ephrin-B2 Fc

## Cc1ccc(C)n1-c1ccc(C(=O)O)c(O)c1 [compound 1, 4-(2,5-dimethyl-pyrrol-1-yl)-2-hydroxy-benzoic acid]
EphA and EphB receptors
  selectivity of inhibition of ephrin binding among EphA and EphB receptors: efficiently inhibited ephrin binding only to EphA4 and EphA2
EphA4 [1]
  ephrin-induced EphA4 tyrosine phosphorylation: blocked
  EphA4 phosphorylation: did not inhibit
EphA4 [2]
  inhibition of binding of different ephrin ligands to EphA4: inhibited binding of most ephrin ligands to EphA4, except for ephrin-A4 and ephrin-B2
EGF receptor
  phosphorylation of the EGF receptor: did not inhibit
EphB2
  phosphorylation of endogenous EphB2: did not inhibit

## Cc1ccc(C)n1-c1ccc(O)c(C(=O)O)c1 [compound 2, 5-(2,5 dimethyl-pyrrol-1-yl)-2-hydroxy-benzoic acid]
EphA and EphB receptors
  selectivity of inhibition of ephrin binding among EphA and EphB receptors: efficiently inhibited ephrin binding only to EphA4 and EphA2
EphA4 [1]
  ephrin-induced EphA4 tyrosine phosphorylation: blocked
  EphA4 phosphorylation: did not inhibit
EphA4 [2]
  inhibition of binding of different ephrin ligands to EphA4: inhibited binding of most ephrin ligands to EphA4, except for ephrin-A4 and ephrin-B2
EGF receptor
  phosphorylation of the EGF receptor: did not inhibit
EphB2
  phosphorylation of endogenous EphB2: did not inhibit
